# According to patent US8299034B2, “Nutritional compositions for promotion of bone growth and maintenance of bone health comprising extracts of for example rosemary or caraway” (Nestec S.A., priority 2008, dated 2012):
# Experiments:
# bone formation = assay: Bone formation bioassays, assay not specified (anabolic potential)
# Excerpt: (§1) The following bioassays were used for bone formation analysis • BMP-2 gene reporter assay (high throughput screen) • Alkaline phosphatase in osteoblast cells • Calvaria organ culture in vitro, bone formation • Injection into calvaria in vivo, bone formation.
# (§2) For example, extracts were screened for bone formation by a high throughput gene reporter assay for BMP-2 followed by an alkaline phosphatase assay and an organ culture model and finally by injection into mice calvaria in vivo. Subfractions of positive extracts and/or pure compounds were further tested for activity.
# (§3) The rosemary plant extracts and the pure compounds were tested in an osteoblast/osteoclast co-culture system.
# BMP-2 = BMP-2 high throughput gene reporter assay; type: cell-based
# Excerpt: as §1
# as §2, with “activity. Analysis of the chemical composition of one active extract was performed in order to determine the active compounds.” for “activity.”
# (§4) The screening for bone formation was carried out in several stages: • (i) BMP-2 high throughput gene reporter assay of non-hydrolyzed MeOH/H2O extracts (1a) and corresponding glycosidase hydrolyzed extract in ethyl acetate (1b). […] Extracts were assessed in a 4-day in vitro neonatal murine calvarial assay. Bones were incubated with the extracts for the entire 4 days. • (vi) Resorption activity monitored by measuring the amount of type I collagen released in the media as osteoclasts digest bone.
# osteoblast cells = assay: Alkaline phosphatase assay in osteoblast cells; type: cell-based
# Method: as §1, §4
# [1] = test system: neonatal murine calvarial bones; assay: Calvaria organ culture in vitro, bone formation; type: cell-based; settings: phenolics tested at 1-10 μM
# Method: as §1, §4
# [2] = test system: Osteopontin (OPN) mRNA in hPOBtert cells; assay: Osteopontin (OPN) mRNA induction by real-time PCR; type: cell-based, human; settings: 48 h, normalised to β-actin
# Method: Cell culture—HPOBTert osteoblasts were seeded on collagen-coated plates and grown in MEM Eagle α Modification medium supplemented with 10% fetal bovine serum, 1% L-glutamine and penicillin/streptomycin, 1 mM β-glycerolphosphate and 50 μg/ml ascorbic acid in a humidified atmosphere of 5% CO2, and 95% air at 37° C. When carnosol and inhibitors were added, an equivalent amount of Me2SO was used as a vehicle control.
# Analysis of mRNA levels by Real-Time PCR—Total cellular RNA was extracted using the NucleoSpin RNA II kit (Macherey-Nagel, Switzerland). Equal amounts (1 μg) of RNA from the different treatments were reverse-transcribed using the First Strand cDNA Synthesis kit for RT-PCR (Roche, Mannheim, Germany). For each sample, 2 μl 10× reaction buffer, 4 μl 25 mM MgCl2, 2 μl nucleotide mix, 2 μl random primers, 1 μl RNAse inhibitor and 0.4 μl AMV reverse transcriptase from the kit were added to the sample. The reverse transcriptase was performed at the following thermal cycling conditions (25° C. for 10 min, 42° C. for 60 min, and 75° C. for 5 min) using the PTC-100™ […]).
# Real-time Quantitative PCR—Quantitative PCR was performed in 25 μl in triplicates. This consisted of 12.5 μl of Taqman 2× Universal PCR Master Mix, 1.25 μl Assay-on-Demand primers and probes (Applied Biosystems, USA) and 6.25 μl RNAse free water. […]
# NQO1 in hPOBtert cells = assay: NQO1 induction, immunoblot; type: cell-based, human
# Method: Preparation of cytoplasmic extracts—hPOBtert cells were washed two times with cold phosphate-buffered saline and harvested with lysis buffer (1% Triton X-100, 20 mM Tris/HCL pH 8, 137 mM Nacl, 10% Glycerol, 2 mM EDTA pH 8, and freshly added proteinase inhibitors: 1 mM phenylmethylsulfonylfluoride, 0.15 U/ml Aprotinin, 10 μg/ml Leupeptide and 10 μg/ml Pepstatin). The samples were centrifuged at 13000 rpm, 4° C. for 5 min and the supernatant transferred to a fresh tube. The protein concentration was determined using the BioRad protein assay. Approximately 50 μg of each sample were mixed with a suitable volume of sample buffer, denatured for 5 min at 95° C. together with 5 μl protein standard, chilled on ice, and loaded on a 10% ready gel, and submitted to immunoblot analysis using anti-NQO1 antibodies.
# Immunoblotting—50 μg of protein cell lysate were resolved by SDS-PAGE. After electrophoresis, proteins were transferred to a PVDF membrane (Invitrogen) according to the manufacturer's protocol. Membranes probed for OPN and NQO1 were blocked and probed in 5% milk in Tris-buffered saline/Tween (20 mM Tris base, pH 7.6, 137 mM, 0.1% Tween 20). The blots were visualised by chemiluminescence development, Western blotting detection system (Amersham Biosciences).
# Antibodies—The NQO1 (sc-16464)-specific antibodies were purchased from Santa Cruz Biotechnologies Inc (Santa Cruz, Calif.). […]
# OPG/RANKL = assay: Osteoblast/osteoclast co-culture system, OPG/RANKL regulation; type: cell-based
# Method: as §3
structure (smiles),measurement,setting,value
COc1c(OC2OC(COC(=O)C=Cc3ccc(O)cc3)C(O)C(O)C2O)cc2oc(-c3ccc(O)c(O)c3)cc(=O)c2c1O (stereo not shown) [6″-Coumaroylnepitrin],anabolic potential,bone formation,anabolic potential
COc1cc(C=CC(=O)OCC2OC(Oc3cc4oc(-c5ccc(O)c(O)c5)cc(=O)c4c(O)c3OC)C(O)C(O)C2O)ccc1O (stereo not shown) [6″-Feruloylnepitrin],anabolic potential,bone formation,anabolic potential
COc1ccc(-c2cc(=O)c3c(O)cc(O)cc3o2)cc1 [Acacetin],BMP-2 induction,BMP-2; 5-10 μM,5.5X
same,ALP activity induction,osteoblast cells; 5-10 μM,2X
CC(C)c1cc2c(c(O)c1O)[C@@]13CCCC(C)(C)[C@@H]1C[C@@H]2OC3=O [Carnosol],BMP-2 induction,BMP-2; 2.5-10 μM,4.5-7X
same,ALP activity induction,osteoblast cells; 2.5-10 μM,2X
same,Bone formation in organ culture,[1],Yes
same,OPN mRNA levels,[2],induce OPN expression dose-dependently
same,NQO1 expression,NQO1 in hPOBtert cells,induces the expression of the phase II enzyme NQO1
same,regulation of OPG/RANKL,OPG/RANKL,activity for regulation of the key cytokines controlling bone remodeling
same,anabolic potential,bone formation,anabolic potential
COc1c(O)cc2oc(-c3ccc(O)c(O)c3)cc(=O)c2c1O [Eupafolin],BMP-2 induction,BMP-2; 2.5-10 μM,3-8X
same,ALP activity induction,osteoblast cells; 5 μM,2 X
same,ALP activity induction,osteoblast cells; 10 μM,4 X
same,Bone formation in organ culture,[1],Yes
same,regulation of OPG/RANKL,OPG/RANKL,activity for regulation of the key cytokines controlling bone remodeling
same,anabolic potential,bone formation,anabolic potential
COc1cc(O)c2c(=O)cc(-c3ccc(O)cc3)oc2c1 [Genkwanin],BMP-2 induction,BMP-2; 5 μM,4X
same,ALP activity induction,osteoblast cells; 10 μM,1.5X
O=c1c(O)c(-c2ccc(O)cc2)oc2cc(O)cc(O)c12 [Kaempferol],BMP-2 induction,BMP-2; 1-10 μM,2.5X
same,ALP activity induction,osteoblast cells; 2.5-10 μM,2-4X
same,Bone formation in organ culture,[1],Yes
same,anabolic potential,bone formation,anabolic potential
O=c1cc(-c2ccc(O)cc2)oc2cc(O)c(O)c(O)c12 [Scutellarein],BMP-2 induction,"BMP-2; 5, 10 μM",3-4X
same,ALP activity induction,osteoblast cells; 10 μM,2X
